Assay results as given in ChEMBL document CHEMBL2390865, “Discovery of aryl ureas and aryl amides as potent and selective histamine H3 receptor antagonists for the treatment of obesity (part II)” (Bioorg Med Chem Lett, 2013).
Calls of active or inactive are those of the source. The calls are words filed in the database; no cut-off is given here.

How the values were obtained:
[1] = Displacement of [3H]N-alpha-methylhistamine from rhesus monkey histamine H3 receptor transfected in CHO cells; format: cell-based, Macaca mulatta
Histamine H3 receptor [2] = molecular target: T1, Histamine H3 receptor (Homo sapiens, UniProt Q9Y5N1); experiment: Antagonist activity at human histamine H3 receptor at 10 uM by GTPgammaS binding assay; format: functional
T1 sequence (Q9Y5N1 whole entry): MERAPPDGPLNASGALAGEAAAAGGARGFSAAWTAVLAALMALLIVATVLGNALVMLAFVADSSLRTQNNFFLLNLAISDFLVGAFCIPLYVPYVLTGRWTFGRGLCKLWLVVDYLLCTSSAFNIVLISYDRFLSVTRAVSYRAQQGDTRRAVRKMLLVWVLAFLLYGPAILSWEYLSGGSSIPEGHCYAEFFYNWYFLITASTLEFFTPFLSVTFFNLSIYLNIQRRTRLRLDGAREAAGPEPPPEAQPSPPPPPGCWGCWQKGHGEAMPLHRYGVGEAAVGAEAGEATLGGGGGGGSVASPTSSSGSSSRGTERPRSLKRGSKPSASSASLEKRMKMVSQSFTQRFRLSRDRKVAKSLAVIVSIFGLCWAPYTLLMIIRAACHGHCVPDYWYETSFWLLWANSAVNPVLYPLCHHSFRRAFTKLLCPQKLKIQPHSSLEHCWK

Histamine H3 receptor [3] = molecular target: T1, Histamine H3 receptor; experiment: Antagonist activity at human histamine H3 receptor by FLIPR assay
[4] = Drug metabolism in rat liver microsomes; format: ADME, Microsome; details: read-out: Drug metabolism; further: time not given here
[5] = Drug metabolism in mouse liver microsomes; format: ADME, Microsome; details: read-out: Drug metabolism; further: time not given here
[6] = Drug metabolism in human liver microsomes; format: ADME, Microsome; details: read-out: Drug metabolism; further: time not given here
[7] = Apparent permeability across human Caco2/TC7 cells; format: ADME, cell-based; details: Caco-2
[8] = molecular target: Histamine H2 receptor (Homo sapiens) (UniProt P25021); experiment: Binding affinity to human histamine H2 receptor
Sequence of Histamine H2 receptor (Homo sapiens) (P25021 whole entry): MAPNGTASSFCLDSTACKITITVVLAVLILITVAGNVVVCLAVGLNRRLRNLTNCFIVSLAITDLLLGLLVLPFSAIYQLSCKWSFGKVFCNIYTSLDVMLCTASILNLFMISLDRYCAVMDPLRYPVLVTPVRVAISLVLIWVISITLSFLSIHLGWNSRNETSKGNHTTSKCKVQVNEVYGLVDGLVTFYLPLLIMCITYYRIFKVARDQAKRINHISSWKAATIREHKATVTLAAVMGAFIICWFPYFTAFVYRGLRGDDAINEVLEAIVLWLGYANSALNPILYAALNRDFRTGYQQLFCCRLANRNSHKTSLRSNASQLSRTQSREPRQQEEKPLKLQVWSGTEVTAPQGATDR

[9] = molecular target: Voltage-gated inwardly rectifying potassium channel KCNH2 (Homo sapiens, UniProt Q12809); experiment: Inhibition of human ERG channel
Sequence of Voltage-gated inwardly rectifying potassium channel KCNH2 (Q12809 whole entry): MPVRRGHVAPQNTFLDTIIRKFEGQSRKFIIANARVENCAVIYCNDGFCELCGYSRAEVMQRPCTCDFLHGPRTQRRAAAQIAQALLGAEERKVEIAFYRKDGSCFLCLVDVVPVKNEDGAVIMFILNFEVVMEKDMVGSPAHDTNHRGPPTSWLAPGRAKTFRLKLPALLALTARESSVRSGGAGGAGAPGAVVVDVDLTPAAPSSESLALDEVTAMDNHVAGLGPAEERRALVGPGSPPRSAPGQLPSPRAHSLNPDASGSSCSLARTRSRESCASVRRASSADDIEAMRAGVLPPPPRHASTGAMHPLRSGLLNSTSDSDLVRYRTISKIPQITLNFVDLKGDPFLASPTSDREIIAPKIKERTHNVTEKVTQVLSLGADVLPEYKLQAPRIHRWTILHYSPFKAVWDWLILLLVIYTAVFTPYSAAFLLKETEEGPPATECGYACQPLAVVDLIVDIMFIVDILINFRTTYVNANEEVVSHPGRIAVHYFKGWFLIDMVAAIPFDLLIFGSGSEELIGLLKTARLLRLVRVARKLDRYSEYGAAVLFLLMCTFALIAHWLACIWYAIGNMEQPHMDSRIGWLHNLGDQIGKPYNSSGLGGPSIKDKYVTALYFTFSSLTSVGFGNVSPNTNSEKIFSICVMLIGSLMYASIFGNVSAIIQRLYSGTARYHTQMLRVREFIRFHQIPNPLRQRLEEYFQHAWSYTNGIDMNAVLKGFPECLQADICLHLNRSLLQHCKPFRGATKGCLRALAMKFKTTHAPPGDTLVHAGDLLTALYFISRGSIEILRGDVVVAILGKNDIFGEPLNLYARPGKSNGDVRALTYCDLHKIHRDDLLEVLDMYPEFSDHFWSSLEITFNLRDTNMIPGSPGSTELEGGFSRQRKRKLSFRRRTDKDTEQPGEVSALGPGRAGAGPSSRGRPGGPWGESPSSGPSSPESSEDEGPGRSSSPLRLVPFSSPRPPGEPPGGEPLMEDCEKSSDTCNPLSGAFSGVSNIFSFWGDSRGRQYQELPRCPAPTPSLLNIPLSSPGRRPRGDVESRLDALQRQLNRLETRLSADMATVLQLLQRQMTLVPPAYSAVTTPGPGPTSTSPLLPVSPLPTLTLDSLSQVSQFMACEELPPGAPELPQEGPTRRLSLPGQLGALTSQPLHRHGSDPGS

Histamine H1 receptor = Histamine H1 receptor (Homo sapiens, UniProt P35367); experiment: Binding affinity to human histamine H1 receptor
Sequence of Histamine H1 receptor (P35367 whole entry): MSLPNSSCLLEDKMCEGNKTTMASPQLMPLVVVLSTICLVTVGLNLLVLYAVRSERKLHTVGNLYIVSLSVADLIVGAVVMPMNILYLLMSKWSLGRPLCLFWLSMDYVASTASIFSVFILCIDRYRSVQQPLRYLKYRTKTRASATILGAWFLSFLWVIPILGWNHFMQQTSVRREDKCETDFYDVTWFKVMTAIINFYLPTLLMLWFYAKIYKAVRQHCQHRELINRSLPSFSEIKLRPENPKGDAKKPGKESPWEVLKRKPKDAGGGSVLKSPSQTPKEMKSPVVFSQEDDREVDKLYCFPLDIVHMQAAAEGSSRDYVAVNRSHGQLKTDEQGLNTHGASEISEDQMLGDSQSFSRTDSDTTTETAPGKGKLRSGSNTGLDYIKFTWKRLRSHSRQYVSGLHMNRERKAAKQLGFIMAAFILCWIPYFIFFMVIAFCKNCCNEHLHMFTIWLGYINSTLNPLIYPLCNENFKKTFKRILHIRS

[10] = Antagonist activity at rhesus monkey histamine H3 receptor by GTPgammaS binding assay; set-up: species or system Macaca mulatta
Histamine H3 receptor [11] = molecular target: Histamine H3 receptor (Rattus norvegicus, UniProt Q9QYN8); experiment: Displacement of [3H]N-alpha-methylhistamine from rat histamine H3 receptor
Sequence of Histamine H3 receptor (Rattus norvegicus, UniProt Q9QYN8) (Q9QYN8 whole entry): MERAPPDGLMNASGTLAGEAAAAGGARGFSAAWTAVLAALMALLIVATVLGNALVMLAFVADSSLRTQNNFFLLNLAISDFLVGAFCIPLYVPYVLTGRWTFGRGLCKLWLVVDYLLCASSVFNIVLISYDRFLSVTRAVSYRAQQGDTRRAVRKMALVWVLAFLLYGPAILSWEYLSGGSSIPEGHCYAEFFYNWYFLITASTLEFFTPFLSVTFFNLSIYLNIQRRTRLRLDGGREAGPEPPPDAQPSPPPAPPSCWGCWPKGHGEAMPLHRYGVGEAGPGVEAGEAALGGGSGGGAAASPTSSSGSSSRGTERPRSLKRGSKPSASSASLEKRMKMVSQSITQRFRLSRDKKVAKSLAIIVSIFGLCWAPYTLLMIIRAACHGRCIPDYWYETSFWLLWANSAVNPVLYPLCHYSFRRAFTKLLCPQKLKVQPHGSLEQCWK

Histamine H3 receptor [12] = molecular target: T1, Histamine H3 receptor; experiment: Displacement of [3H]N-alpha-methylhistamine from human histamine H3 receptor

Question: With `Cc1cc(NC(=O)c2cc(Cl)cc(Cl)c2)ccc1N1CCC(N2CCCC2C)C1` (stereo unspecified) as the compound, how does the Ki [1] read?
Answer: 54 nM

Question: With `Cc1cc(NC(=O)c2c(C)noc2C)ccc1N1CCC(N2CCCC2C)C1` (stereo unspecified) as the compound, how does the Ki [1] read?
Answer: 3.2 nM

Question: For `Cc1cc(N2CCC(N3CCCC3C)C2)ccc1NC(=O)c1cccc(F)c1` (stereo unspecified), which Ki [1] is on record?
Answer: 12.1 nM

Question: With `Cc1cc(N2CCC(N3CCCC3C)C2)ccc1NC(=O)c1ccc(C)c(S(C)(=O)=O)c1` (stereo unspecified) as the compound, how does the Ki [1] read?
Answer: 11.9 nM

Question: What does the source list for `CC1CCCN1C1CCN(c2ccc(NC(=O)c3cc(Cl)cc(Cl)c3)cc2)C1` (stereo unspecified)?
Answer: inhibition (Histamine H3 receptor [2]): 119%; IC50 (Histamine H3 receptor [3]): 0.48 nM; Ki [1]: 49.5 nM

Question: With `Cc1cc(N2CCC(N3CCCC3C)C2)ccc1NC(=O)c1ccc2[nH]ccc2c1` (stereo unspecified) as the compound, how does the Ki [1] read?
Answer: 30.4 nM

Question: With `Cc1ccc(F)cc1C(=O)Nc1ccc(N2CCC(N3CCCC3C)C2)cc1C(F)(F)F` (stereo unspecified) as the compound, how does the Ki [1] read?
Answer: 4 nM

Question: With `Cc1cc(N2CCC(CN3CCCC3C)C2)ccc1NC(=O)c1ccc2[nH]ccc2c1` (stereo unspecified) as the compound, how does the Ki [1] read?
Answer: 45 nM

Question: With `Cc1cc(N2CCC(N3CCCC3C)C2)ccc1NC(=O)c1ccc(CO)cc1` (stereo unspecified) as the compound, how does the Ki [1] read?
Answer: 12.7 nM

Question: For `Cc1cc(N2CCC(N3CCCC3C)C2)ccc1NC(=O)c1ccc(Oc2nccs2)cc1` (stereo unspecified), which Ki [1] is on record?
Answer: 24 nM

Question: Which metabolised [4] does the source give for `CC1CCCN1C1CCN(c2ccc(NC(=O)c3ccccc3F)c(C(F)(F)F)c2)C1` (stereo unspecified) here?
Answer: 45%

Question: And the metabolised [5]?
Answer: 44%

Question: What about the metabolised [6] of the same compound?
Answer: 14%

Question: What about the Ki [1] of the same compound?
Answer: 16.9 nM

Question: With `Cc1cc(N2CCC(N3CCCC3C)C2)ccc1NC(=O)c1ccc(-c2ccccn2)cc1` (stereo unspecified) as the compound, how does the Ki [1] read?
Answer: 12.2 nM

Question: Which metabolised [4] does the source give for `Cc1cc(N2CCC(N3CCCC3C)C2)ccc1NC(=O)c1ccc(Cl)cc1` (stereo unspecified) here?
Answer: 33%

Question: And the metabolised [5]?
Answer: 22%

Question: And the metabolised [6]?
Answer: 32%

Question: And the Ki [1]?
Answer: 2.6 nM

Question: For `Cc1cc(N2CCC(N3CCCC3C)C2)ccc1NC(=O)c1ccc(-c2cccnc2)cc1` (stereo unspecified), which Ki [1] is on record?
Answer: 18.8 nM

Question: Which Ki [1] does the source give for `Cc1cc(N2CCC(N3CCCC3C)C2)ccc1NC(=O)c1ccc(-c2ccncc2)cc1` (stereo unspecified) here?
Answer: 26.7 nM

Question: For `Cc1cc(N2CCC(N3CCCC3C)C2)ccc1NC(=O)c1ccc(-n2cccn2)cc1` (stereo unspecified), which Ki [1] is on record?
Answer: 39.1 nM

Question: Which Ki [1] does the source give for `Cc1cc(N2CCC(N3CCCC3C)C2)ccc1NC(=O)c1cc2ccccc2[nH]1` (stereo unspecified) here?
Answer: 71.1 nM

Question: For `Cc1cc(C(=O)Nc2ccc(N3CCC(N4CCCC4C)C3)cc2)n[nH]1` (stereo unspecified), which metabolised [4] is on record?
Answer: 37%

Question: And the metabolised [5]?
Answer: 16%

Question: And the metabolised [6]?
Answer: 2%

Question: What about the Ki [1] of the same compound?
Answer: 44.5 nM

Question: What about the Papp [7] of the same compound?
Answer: 9.19 ×10⁻⁶ cm/s

Question: With `Cc1cc(NC(=O)c2cn[nH]c2)ccc1N1CCC(N2CCCC2C)C1` (stereo unspecified) as the compound, how does the Ki [1] read?
Answer: 126 nM

Question: Which Activity [8] does the source give for `Cc1cc(N2CCC(N3CCCC3C)C2)ccc1NC(=O)c1ccccc1F` (stereo unspecified) here?
Answer: inactive

Question: What about the IC50 [9] of the same compound?
Answer: 1000 nM

Question: What about the Ki (Histamine H1 receptor) of the same compound?
Answer: > 9300 nM

Question: And the EC50 [10]?
Answer: 2.9 nM

Question: And the Ki (Histamine H3 receptor [11])?
Answer: 55.4 nM

Question: What about the Ki (Histamine H3 receptor [12]) of the same compound?
Answer: 13.8 nM

Question: What about the metabolised [4] of the same compound?
Answer: 28%

Question: What about the metabolised [6] of the same compound?
Answer: 15%

Question: And the Ki [1]?
Answer: 5.8 nM

Question: And the Papp [7]?
Answer: 9.24 ×10⁻⁶ cm/s

Question: With `COc1ccc(C(=O)Nc2ccc(N3CCC(N4CCCC4C)C3)cc2)cc1` (stereo unspecified) as the compound, how does the Ki [1] read?
Answer: 17.6 nM

Question: Which Ki [1] does the source give for `CC1CCCN1C1CCN(c2ccc(NC(=O)c3ccc(N(C)C)cc3)cc2)C1` (stereo unspecified) here?
Answer: 33.5 nM

Question: For `Cc1cc(N2CCC(CN3CCCC3C)C2)ccc1NC(=O)c1ccc(C)c(S(C)(=O)=O)c1` (stereo unspecified), which Ki [1] is on record?
Answer: 29 nM

Question: With `Cc1cc(N2CCC(N3CCCC3C)C2)ccc1NC(=O)c1ccc(S(C)(=O)=O)cc1` (stereo unspecified) as the compound, how does the Ki [1] read?
Answer: 25.6 nM

Question: For `Cc1cc(N2CCC(N3CCCC3C)C2)ccc1NC(=O)c1cn[nH]c1` (stereo unspecified), which metabolised [4] is on record?
Answer: 28%

Question: What about the metabolised [5] of the same compound?
Answer: 16%

Question: And the metabolised [6]?
Answer: 2%

Question: What about the Ki [1] of the same compound?
Answer: 24.7 nM

Question: What about the Papp [7] of the same compound?
Answer: 0.35 ×10⁻⁶ cm/s

Question: With `Cc1cc(N2CCC(CN3CCCC3C)C2)ccc1NC(=O)c1ccc2cc[nH]c2c1` (stereo unspecified) as the compound, how does the Ki [1] read?
Answer: 18 nM
